Experimental data as given in PMC5073322, “Novel Natural Product-like Caged Xanthones Bearing a Carbamate Moiety Exhibit Antitumor Potency and Anti-Angiogenesis Activity In vivo” (Scientific Reports, 2016).

Assays:
[1] = biological target: Recombinant human Hsp90 protein; experiment: Hsp90 ATPase activity assay; format: biochemical; conditions: ADP detection, ATP 100 μM
Source text: Lianru Zhang, Brian S. J. Blagg, et al. reported that GA inhibited Hsp90 ATPase in vitro[21][38]. The effects of these compounds on Hsp90 ATPase activity were examined by measuring the ability of Hsp90 to hydrolyse ATP using a homogeneous time-resolved fluorescence (HTRF) assay to determine whether the caged-xanthone-derivatives of GA inhibited Hsp90. […] The inhibition of Hsp90 could decrease client protein levels. Based on the enzymatic, structural, and antiproliferative results, 8n was chosen for further investigation.
Figure 9 (A) The caged compounds (50 μM) inhibited the Hsp90 ATPase activity in a HTRF-based inhibition assay. (B) The IC50 values for the inhibition of Hsp90 ATPase by 8n, 8o and GA as detected by the HTRF Transcreener ADP kit. […] The amount of ADP generated was detected. […] (D) The mRNA expression of VEGF was determined by real-time quantitative reverse-transcriptase polymerase chain reaction (RT-PCR) and analysed by the delta Ct method. […]
To measure the Hsp90 ATPase activity, a ADP Hunter Plus Assay kit from DiscoverX was used as previously described. […] Then, the plate was incubated for another 0.5 h after the addition of ATP (100 μM), followed by addition of the detection reagent, and the fluorescence was measured at an excitation wavelength 540 nm and emission wavelength of 620 nm using a spectrophotometer (Varioskan multimode, Thermo). […]

[2] = design: method as in PMID 23167526; conditions: cited from earlier work
Heps tumour = test system: Heps tumour; design: method as in PMID 25958244; conditions: Heps-transplanted mice, intravenous (IV) administration; cited from earlier work

SMILES: CO[C@H]1/C=C\C=C(/C)C(=O)NC2=CC(=O)C(NCCN(C)C)=C(C[C@@H](C)C[C@H](OC)[C@H](O)[C@@H](C)/C=C(\C)[C@@H]1OC(N)=O)C2=O [Compound 17-DMAG, 17-(Dimethylaminoethylamino)-17-demethoxygeldanamycin]
- IC50 [1]: 919 nM

SMILES: CC(C)=CCC12OC(C)(C)C3[C@@H](CN4CCN(C)CC4)C(C=C4C(=O)c5c(O)cccc5OC431)C2=O (stereo partly drawn) [DDO-6267]
- oral antitumor activity compared with GA [2]: better oral antitumor activity than GA

SMILES: C/C(=C\CC12OC(C)(C)C3CC(C=C4C(=O)c5c(O)cccc5OC431)C2=O)COC(=O)CN(C)C (stereo not drawn) [DDO-6306]
- inhibition of tumour growth (Heps tumour): 52.6%
